Patent US11096948B2, “Methods for treating helicobacter infection” (DEXCEL PHARMA TECHNOLOGIES LTD., priority 2016, dated 2021)
“And” between values parts separate entries of the source, which are not always exact repeats. Identical values can stand only once.

Assays:
[1] = tested on: H. pylori ATCC No. 43826; experiment: Disk diffusion susceptibility of H. pylori to sodium fusidate; format: cell-based, Helicobacter pylori; settings: 4 days at 37° C., sample No. = replicate disk
Experimental: (§1) In vitro testing for the susceptibility of H. pylori to sodium fusidate was performed. Inoculation was made with a broth culture of two ATCC strains of H. pylori (ATCC No. 700824 and 43826) diluted to match a 0.5 McFarland turbidity standard. Disks containing increasing antibiotic concentrations (0.5-4.0%) were placed on seeded bacterial lawn on agar surface. Three disks with the same antibiotic concentration were placed on each plate. The disks were evenly distributed in a circle towards the periphery of the plate. Plates were incubated for 4 days at an incubation temperature of 37° C. (with Microaerophilic pach). Diameter of inhibition sizes was measured wherein each disk was considered to represent the center of the clear zone, namely the slope of the regression line is construed to correspond to the diffusion coefficient of the antibiotic in the agar. Negative control disks containing water instead of antibiotics were placed at the center of each dish. A separate plate with no disks was prepared as an additional control. […]

[2] = tested on: H. pylori ATCC No. 700824; experiment: as above; format: cell-based, Helicobacter pylori; settings: 4 days at 37° C., sample No. = replicate disk
Experimental: as §1

[3] = tested on: different strains of H. pylori; experiment: In vitro studies against different strains of H. pylori; format: cell-based, Helicobacter pylori
Excerpt: The present disclosure is based in part on the unexpected finding of bacteriostatic and/or bacteriocidic action of fusidic acid or a pharmaceutically acceptable salt or solvate thereof (e.g. sodium fusidate) against H. pylori. […] This finding provides a significant advantage over the hitherto known treatments, by increasing the percentage of patients in which eradication is achieved, reducing doses and side effects of conventional add-on therapy, preserving gut microbiota, and decreasing exposure to conventional antibiotics thereby decreasing antibiotic resistance. In addition, fusidic acid and/or salts and solvates thereof have no cross-resistance with the existing antibiotics used for the treatment of H. pylori and have low probability for developing resistance.

[4] = tested on: H. pylori; settings: cited from earlier work
[5] = sodium fusidate con. 0.5% on disk
[6] = sodium fusidate con. 1.0% on disk
[7] = sodium fusidate con. 4.0% on disk

Row | Structure (SMILES) | Diameter of inhibition [1, 5] | Diameter of inhibition [1, 6] | Diameter of inhibition [1, 7] | Diameter of inhibition [2, 5] | Diameter of inhibition [2, 6] | Diameter of inhibition [2, 7] | Activity against different strains of H. pylori [3] | Efficacy as monotherapy against H. pylori [4]
1 | CC(=O)O[C@H]1C[C@@]2(C)[C@@H](C[C@@H](O)[C@H]3[C@@]4(C)CC[C@@H](O)[C@@H](C)[C@@H]4CC[C@@]32C)/C1=C(\CCC=C(C)C)C(=O)O [Sodium fusidate, sodium fusidate] | ≥4.4 cm | ≥4.4 cm | ≥4.4 cm | 1.6 cm and 2 cm and 2.4 cm | 2.7 cm and 2.6 cm and 3.0 cm | ≥4.4 cm | active | 
2 | CC(=O)O[C@H]1C[C@@]2(C)[C@@H](C[C@@H](O)[C@H]3[C@@]4(C)CC[C@@H](O)[C@@H](C)[C@@H]4CC[C@@]32C)/C1=C(\CCC=C(C)C)C(=O)O [fusidic acid, 29-Nordammara-17(20),24-dien-21-oic acid, 16-(acetyloxy)-3,11-dihydroxy-, (3α, 4α, 8α, 9α, 11α, 13α, 14β, 16β, 17Z)-] |  |  |  |  |  |  | active | ineffective
